In patent publication US20130330244A1, “COMPOSITIONS AND METHODS FOR TOPICAL NITRIC OXIDE GENERATION” (NIOXX LLC, priority 2011, published 2013):

Assays:
[1] = Preservation of color and viscosity of the composition over time; type: physicochemical; details: used instead of ascorbic acid in the gel
Method: Gels were prepared according to the mixing procedure of Example 1, but with amounts of the ingredients to achieve molarities of those ingredients as shown below. Euxyl® PE9010 is a preservative having phenoxyethanol as the active ingredient (Schülke and Mayr, 30 Two Bridges Road Suite 225, Fairfield, N.J. 07004, USA).

[2] = cited from earlier work

SMILES | color and viscosity stability of composition [1] | pKa [2]
CCOC1=C(O)C(=O)O[C@@H]1[C@@H](O)CO [3-O-ethyl ascorbic acid] | preserves the color and viscosity of the composition over long periods of time | 
O=NO [Nitrous acid] |  | 3.37
